Source: US12018024B2, “Compounds and compositions for the treatment of cryptosporidiosis” (Novartis AG, priority 2020, dated 2024)
Read-outs that look alike come from different tables or passages of the source.

Experiments:
C. parvum PI(4)K = C. parvum PI(4)K (Cryptosporidium parvum, UniProt Q5CVD3); assay: CpPI(4)K enzymatic assay (Transcreener ADP2 FP); format: biochemical
Description: Baculovirus expression and purification of C. parvum phosphatidylinositol 4-kinase: The full-length coding sequence of C. parvum PI(4)K (cgd8_4500, 1114 amino acids) was codon-optimized for baculovirus expression, synthesized and cloned into pFastBac-HTb (Invitrogen 10584-027) in frame with the amino-terminal polyhistidine tag using the BamHI and HindIII restriction sites. Recombinant pFastBacHTb-CpPI(4)K bacmid clones were generated by site-specific transposition in E. coli DH10Bac (Invitrogen 10361-012). The bacmid sequence was confirmed by direct DNA sequencing to confirm a lack of mutations across the whole gene. The subsequent steps for bacmid isolation, transfection and selection of the recombinant viruses were performed according to the manufacturer's protocol (Bac-to-Bac system #10359, Invitrogen).
SF9 cells, cultured in […] serum-free medium, were transfected with recombinant baculovirus at 1/200 (v/v) and incubated at 27° C. for 72 h. The pellets were collected after centrifugation and re-suspended in cell lysis buffer (20 mM Tris-HCl, pH 7.5, 300 mM NaCl, 1 mM DTT, 20 mM imidazole, 0.01% Triton X-100 and 1× complete protease inhibitor cocktail without EDTA (Roche Diagnostics 04693116001)). The cell suspension was lysed by sonication and the clarified supernatant was loaded onto a 1 ml HisTrap affinity column (GE Healthcare) pre-equilibrated with buffer A (20 mM Tris-HCl, pH 7.5, 300 mM NaCl, 1 mM DTT, 20 mM Imidazole, and 1× complete protease inhibitor cocktail without EDTA). The column was washed with buffer B (buffer A containing 45 mM imidazole) and the bound protein of interest was eluted with buffer C (buffer A with 90 mM imidazole). The fractions containing CpPI(4)K were pooled, concentrated using Amicon Ultra-15 and purified by a gel-filtration column (Hi-Load 26/60 Superdex 200, GE Healthcare) equilibrated with 20 mM Tris, pH 7.5, 300 mM NaCl, 1 mM DTT and 1× protease inhibitor cocktail without EDTA. The concentrations of the purified protein (Mw 132.39 kda) was determined by using the protein molar extinction coefficient (ε280 nm=133,810 M^−1 cm^−1). Aliquots were flash frozen in liquid nitrogen and immediately stored at −80° C.
PI(4)K enzymatic Assay The CpPI(4)K enzymatic assay was performed as described earlier with a some modifications (McNamara et al., 2013). Briefly, L-α-phosphatidylinositol (Avanti Polar Lipid 840046), dissolved in 3% n-octylglucoside (Roche Diagnostics 10634425001), was used as the lipid substrate for the PI(4)K activity assay. CpPI(4)K was assayed using Transcreener ADP2 FP detection kit (BellBrook 3010) in a black, solid 384-well plate (Corning 3575). The final assay volume was 10 μl and contained 3 nM of the respective CpPI(4)K construct in 10 mM Tris, pH 7.5, 1 mM DTT, 3 μM ATP, 5 mM Mn2+, 0.05% Triton X-100 and 10 μM phosphatidylinositol/octylglucoside. The enzyme reaction was performed for 50 minutes at room temperature and was stopped by adding 10 μl of detection mix containing 1× stop buffer (50 mM HEPES, pH7.5, 400 mM NaCl, 20 mM EDTA, and 0.02% Brij-35), 2 nM AMP Alexa Fluor 633 tracer, and 20 μg ml^−1 ADP antibody. Fluorescence polarization measurements were performed on the Infinite M1000 plate reader (Tecan) with λex=635 nm and λem=680 nm (20-nm bandwidth). IC50 values were calculated using Graphpad Prism software.

Cryptosporidium parvum = assay: Cytopathic effect (CPE) based assay, C. parvum-infected HCT-8 cells; format: cell-based; settings: HCT-8, 48 h, read-out: (b) C.p.* CPE EC50 (μM)
Protocol: (§1) Human ileocecal colorectal adenocarcinoma cells (HCT-8 [HRT-18] ATCC, CCL-34) were maintained in T-175 flasks (Corning, 431080) in complete growth medium (RPMI-1640 medium (Gibco, 11875) supplemented with 10% heat-inactivated horse serum (Gibco, 26050), 1× MEM non-essential amino acids (Gibco, 11140), 10 mM HEPES (Gibco, 15630), 100 units/mL penicillin, and 100 units/mL streptomycin) at 37° C. and 5% CO2 in a humidified incubator. Cultures were passaged twice weekly using 10 mL of 1× Phosphate-Buffered Saline (PBS) without Ca^2+ and Mg^2+ (Gibco, 20012) for washing and 3-5 mL per T-175 flask of TrypLE Express Enzyme (Gibco, 12604) for dissociation of adherent cells.
Cryptosporidium parvum oocysts purchased from the Sterling Laboratory, University of Arizona (Iowa isolate) were purified from infected calf feces using discontinuous sucrose and cesium chloride centrifugation gradients and stored in PBS solution containing 0.01% Tween 20, 100 units/mL penicillin and 100 units/mL gentamicin.
(§2) Excystaion and infection: Excystation and infection protocols were developed following established methods with some modifications (Gut & Nelson, 1999, Upton et al., 1995, Bessoff et al., 2013). Briefly, oocysts were primed in 1 mL of 10 mM hydrochloric acid in 1× Hank's Balanced Salt Solution (HBSS) (Gibco, 14025) for 10 minutes with agitation at 1000 rpm, 37° C. on an Eppendorf thermomixer, then washed twice with 1 mL of room temperature non-acidic 1× HBSS by centrifugation at 13,000 rpm for 3 minutes at 25° C. Primed oocysts were further excysted at a concentration of 1×10^6 oocysts/μL in parasite infection medium consisting of a pre-warmed and pre-gassed 1:1 formulation of Leibovitz's L-15 medium (Gibco, 11415) and UltraCULTURE medium (Lonza, 12-725F) supplemented with 2 mM sodium taurocholate (Sigma, 86339-1), 10% heat-inactivated horse serum, and 200 μM L-ascorbic acid (Sigma, 95210) at 25° C. for 10 minutes. HCT-8 monolayer cells were infected with excysted cryptosporidium at a specified multiplicity of infection (MOI). All dilutions for subsequent assays were performed in parasite infection medium without sodium taurocholate. Pre-excysted oocysts were enumerated microscopically using a C-Chip disposable hemocytometer (NanoEnTek, DHC-N01).
Compound and assay plate preparation: Compound powders were dissolved in neat DMSO (Fisher, D4121) to 10 mM and stored at 4° C. prior to dilution into source plates. Dilutions were carried out using a Microlab STAR liquid handler (Hamilton) to obtain compound source plates containing the ten-point or eight-point three fold dilutions starting from 10 mM in duplicates. Source plates were stored at 4° C. prior to spotting into assay plates. Before administration, all compound source plates were equilibrated to room temperature. A specified volume of compounds from source plate were spotted to assay plate using an Echo Acoustic liquid handler (LABCYTE, 550) so that the final DMSO concentration was less than 0.5%. Each assay plate a specified number of DMSO-treated negative control wells and a well-studied potent active compound at 100 nM as positive control. As a quality control, all positive and negative-control wells were used to calculate a Z′-value and signal to noise ratio (S:N) for each plate.
Cryptosporidium spp are obligate-intracellular parasites that infect intestinal epithelial cells and the host cell is killed upon parasite egress. […] The loss of epithelial cells is due to both rapid parasite invasion/multiplication/egress and also pro-inflammatory immune response (Adams et al., 1994, Griffiths et al., 1994). We have observed a consistent cytopathic effect (CPE) in HCT-8 cells with C. spp infection the loss of viability of the host cells using CellTiter-Glo reagent.
Confluent HCT-8 cells in T-175 flasks were directly infected with excysted oocysts at an MOI (host to parasite) of 1:2 for C. parvum and 1:4 for C. hominis. […]

Cryptosporidium hominis = assay: Cytopathic effect (CPE) based assay, C. hominis-infected HCT-8 cells; format: cell-based
Protocol: as §1
Cryptosporidium hominis oocysts were purchased from the Tufts University Cummings School of Veterinary Medicine (courtesy of Dr. Saul Tzipori). C. hominis oocysts were purified from infected gnotobiotic piglet feces and stored in PBS solution containing 0.01% Tween-20, 100 units/mL penicillin and 100 units/mL gentamicin. C. parvum and C. hominis oocysts less than three months old from the date of shedding were used in infection experiments.
as §2
Compound and assay plate preparation: Compound powders were dissolved in neat DMSO (Fisher, D4121) to 10 mM and stored at 4° C. prior to dilution into source plates. Dilutions were carried out using a Microlab STAR liquid handler (Hamilton) to obtain compound source plates containing the ten-point or eight-point three fold dilutions starting from 10 mM in duplicates. […]

H.s. PI(4)K = H.s. PI(4)K (Homo sapiens, UniProt Q9UBF8); assay: H.s. PI(4)K IC50; format: biochemical; settings: read-out: (d) H.s.* PI(4)K IC50
Chain of H.s. PI(4)K (Q9UBF8 2-816 limits assumed): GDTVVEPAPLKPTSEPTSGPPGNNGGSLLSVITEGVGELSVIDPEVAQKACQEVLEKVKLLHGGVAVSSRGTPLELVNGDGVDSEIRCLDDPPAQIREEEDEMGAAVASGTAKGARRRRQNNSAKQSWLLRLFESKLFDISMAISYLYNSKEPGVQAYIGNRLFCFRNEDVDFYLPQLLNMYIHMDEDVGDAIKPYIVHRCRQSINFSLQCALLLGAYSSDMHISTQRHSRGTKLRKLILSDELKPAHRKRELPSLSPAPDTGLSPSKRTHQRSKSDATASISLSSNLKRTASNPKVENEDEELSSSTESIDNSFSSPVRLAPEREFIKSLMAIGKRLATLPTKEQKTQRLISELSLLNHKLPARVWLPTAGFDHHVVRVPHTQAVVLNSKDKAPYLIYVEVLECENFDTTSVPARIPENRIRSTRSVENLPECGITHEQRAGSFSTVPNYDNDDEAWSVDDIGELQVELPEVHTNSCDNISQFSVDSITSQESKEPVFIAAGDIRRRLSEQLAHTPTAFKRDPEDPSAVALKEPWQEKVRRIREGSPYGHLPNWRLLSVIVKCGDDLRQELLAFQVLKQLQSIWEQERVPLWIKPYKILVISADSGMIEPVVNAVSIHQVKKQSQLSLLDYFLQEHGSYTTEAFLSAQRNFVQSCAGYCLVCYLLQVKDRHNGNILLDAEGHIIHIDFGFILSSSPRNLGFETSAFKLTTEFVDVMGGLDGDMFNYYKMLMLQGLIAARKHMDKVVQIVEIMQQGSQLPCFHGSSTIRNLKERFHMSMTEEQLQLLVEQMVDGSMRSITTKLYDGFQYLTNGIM

[1] = HCT-8 host cells, 48 hours treatment, CellTiter-Glo, read-out: (c) C.h.* CPE EC50

Chain of C. parvum PI(4)K (Q5CVD3 entry or part of it): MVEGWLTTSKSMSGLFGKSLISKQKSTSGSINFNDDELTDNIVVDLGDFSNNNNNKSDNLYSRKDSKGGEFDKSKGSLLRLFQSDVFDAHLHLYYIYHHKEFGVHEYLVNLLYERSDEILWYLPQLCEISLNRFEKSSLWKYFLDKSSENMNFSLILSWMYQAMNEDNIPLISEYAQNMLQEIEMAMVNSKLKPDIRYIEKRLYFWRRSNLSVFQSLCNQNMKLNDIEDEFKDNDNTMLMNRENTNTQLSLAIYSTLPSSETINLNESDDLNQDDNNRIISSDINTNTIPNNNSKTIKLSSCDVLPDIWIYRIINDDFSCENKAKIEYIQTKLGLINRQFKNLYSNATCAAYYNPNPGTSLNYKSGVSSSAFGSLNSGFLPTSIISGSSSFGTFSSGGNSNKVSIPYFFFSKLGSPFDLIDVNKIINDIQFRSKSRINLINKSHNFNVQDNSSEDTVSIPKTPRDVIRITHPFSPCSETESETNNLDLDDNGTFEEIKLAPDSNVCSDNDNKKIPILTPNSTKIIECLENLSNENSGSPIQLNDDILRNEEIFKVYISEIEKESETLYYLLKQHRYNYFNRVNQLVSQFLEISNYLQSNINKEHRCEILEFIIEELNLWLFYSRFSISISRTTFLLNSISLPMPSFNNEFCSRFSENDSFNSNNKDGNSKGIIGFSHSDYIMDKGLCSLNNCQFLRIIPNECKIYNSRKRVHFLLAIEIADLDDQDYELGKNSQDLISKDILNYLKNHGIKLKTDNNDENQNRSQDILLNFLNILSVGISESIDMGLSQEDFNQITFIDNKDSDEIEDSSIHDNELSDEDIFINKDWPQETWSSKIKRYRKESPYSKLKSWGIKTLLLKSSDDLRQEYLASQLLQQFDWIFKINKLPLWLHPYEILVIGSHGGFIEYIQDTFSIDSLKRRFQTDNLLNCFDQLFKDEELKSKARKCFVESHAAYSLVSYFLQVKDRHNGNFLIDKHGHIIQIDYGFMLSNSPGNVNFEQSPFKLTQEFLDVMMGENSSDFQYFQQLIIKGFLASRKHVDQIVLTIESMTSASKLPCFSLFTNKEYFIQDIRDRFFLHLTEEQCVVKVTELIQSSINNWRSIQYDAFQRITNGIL

Row | Structure (SMILES) | IC50 (C. parvum PI(4)K) [nM] | EC50 (Cryptosporidium parvum) [µM] | EC50 (Cryptosporidium hominis; HCT-8, 48 h, read-out: (c) C.h.* CPE EC50 (μM)) [µM] | IC50 (H.s. PI(4)K) [nM] | EC50 (Cryptosporidium hominis; [1]) [µM]
1 | CNC(=O)c1ccc(-c2cnn3ccc(C(=O)N(C)c4ccc(Cl)c(C(=O)OC)c4)cc23)cc1 [Example 1.16, Methyl 2-chloro-5-(N-methyl-3-(4-(methylcarbamoyl)phenyl)pyrazolo[1,5-a]pyridine-5-carboxamido)benzoate] | < 100 | < 0.1 | < 0.1 | 100 to 1000 | 
2 | CNC(=O)c1ccc(-c2cnn3cnc(C(=O)N(C)c4ccc(Cl)c(C(=O)OC)c4)cc23)cc1 [Example 3.1, Methyl 2-chloro-5-(N-methyl-3-(4-(methylcarbamoyl)phenyl)pyrazolo[1,5-c]pyrimidine-5-carboxamido)benzoate] | < 100 | 0.1 to 1 |  | > 1000 | 0.1 to 1
3 | COC(=O)c1cc(Cl)ccc1N(C)C(=O)c1ccn2ncc(-c3ccc(C(N)=O)cc3)c2c1 [Example 4.1, Methyl 2-(3-(4-carbamoylphenyl)-N-methylpyrazolo[1,5-a]pyridine-5-carboxamido)-5-chlorobenzoate] | < 100 | < 0.1 |  | 100 to 1000 | < 0.1
